Test results: the supplement of paper PMC13380429

How the values were obtained:
Settings in all cases: 72 h
[1] = system: Caco-2; experiment: cell viability relative to DMSO; higher = less toxic
[2] = system: Calu-3; experiment: as above
[3] = system: HepG2; experiment: as above
[4] = system: U2OS; experiment: as above
[5] = system: Vero E6; experiment: as above
[6] = system: Caco-2; experiment: relative viability EC50 (midpoint between 100% and the lowest measured viability); higher = less toxic
[7] = system: Calu-3; experiment: as above
[8] = system: HepG2; experiment: as above
[9] = system: U2OS; experiment: as above
[10] = system: Vero E6; experiment: as above
[11] = system: Caco-2; experiment: drug sensitivity score (DSS) for viability; higher = more toxic; extreme values may be limits of the assay
[12] = system: Calu-3; experiment: as above
[13] = system: HepG2; experiment: as above
[14] = system: U2OS; experiment: as above
[15] = system: Vero E6; experiment: as above

| Compound | cell viability ([1]; 1 nM) | cell viability ([1]; 10 nM) | cell viability ([1]; 100 nM) | cell viability ([1]; 1000 nM) | cell viability ([1]; 10000 nM) | cell viability ([2]; 1 nM) | cell viability ([2]; 10 nM) | cell viability ([2]; 100 nM) | cell viability ([2]; 1000 nM) | cell viability ([2]; 10000 nM) | cell viability ([3]; 1 nM) | cell viability ([3]; 10 nM) | cell viability ([3]; 100 nM) | cell viability ([3]; 1000 nM) | cell viability ([3]; 10000 nM) | cell viability ([4]; 1 nM) | cell viability ([4]; 10 nM) | cell viability ([4]; 100 nM) | cell viability ([4]; 1000 nM) | cell viability ([4]; 10000 nM) | cell viability ([5]; 1 nM) | cell viability ([5]; 10 nM) | cell viability ([5]; 100 nM) | cell viability ([5]; 1000 nM) | cell viability ([5]; 10000 nM) | relative viability EC50 [6] | relative viability EC50 [7] | relative viability EC50 [8] | relative viability EC50 [9] | relative viability EC50 [10] | drug sensitivity score [11] | drug sensitivity score [12] | drug sensitivity score [13] | drug sensitivity score [14] | drug sensitivity score [15] |
| --- | --- | --- | --- | --- | --- | --- | --- | --- | --- | --- | --- | --- | --- | --- | --- | --- | --- | --- | --- | --- | --- | --- | --- | --- | --- | --- | --- | --- | --- | --- | --- | --- | --- | --- | --- |
| CCCCCCCCCCCCC/C=C/[C@@H](O)[C@@H](N)CO[P@](=O)(O)OCC[N+](C)(C)C [sphingosylphosphorylcholine] | 91% | 90.4% | 102% | 101% | 102% | 94.2% | 106% | 87.7% | 97.5% | 107% | 86% | 98.8% | 88.5% | 102% | 104% | 94% | 97% | 101% | 95.7% | 100% | 99.4% | 103% | 94.1% | 105% | 109% | > 10 µM | > 10 µM | > 10 µM | > 10 µM | > 10 µM | 0 | 0 | 0 | 0 | 0 |
| Cc1ccc2c(c1)[C@H]1CN(C)CC[C@H]1N2 [stobadine] | 96.5% | 91.9% | 92.2% | 96% | 95.8% | 97.2% | 116% | 93% | 94.5% | 102% | 107% | 110% | 97.2% | 97.4% | 95.8% | 100% | 98.7% | 101% | 99.6% | 101% | 101% | 102% | 99.7% | 103% | 94.1% | > 10 µM | > 10 µM | > 10 µM | > 10 µM | > 10 µM | 0 | 0 | 0 | 0 | 0 |
| C[C@H](CCC(=O)NCCS(=O)(=O)O)[C@H]1CC[C@H]2[C@@H]3[C@H](O)C[C@@H]4C[C@H](O)CC[C@]4(C)[C@H]3C[C@H](O)[C@]12C [taurocholate] | 110% | 86.9% | 104% | 87.2% | 92.2% | 103% | 99% | 109% | 102% | 96.3% | 105% | 74% | 99.8% | 108% | 98.4% | 100% | 98.9% | 101% | 98.9% | 99.2% | 104% | 106% | 107% | 110% | 95% | > 10 µM | > 10 µM | > 10 µM | > 10 µM | > 10 µM | 0 | 0 | 0 | 0 | 0 |
| O=S1(=O)CCN(CN2CCS(=O)(=O)NC2)CN1 [taurolidine] | 102% | 118% | 104% | 96.6% | 87.9% | 99.8% | 95.2% | 97.6% | 92.7% | 94.4% | 106% | 89.8% | 104% | 99.2% | 97.2% | 97.3% | 98.3% | 95.8% | 103% | 98.7% | 114% | 99.7% | 101% | 97.5% | 99.4% | > 10 µM | > 10 µM | > 10 µM | > 10 µM | > 10 µM | 0.2 | 0 | 0 | 0 | 0 |
| C[N+]1(C)[C@@H]2C[C@@H](OC(=O)C(O)(c3cccs3)c3cccs3)C[C@H]1[C@@H]1O[C@@H]12 [tiotropium] | 105% | 100% | 101% | 99.5% | 104% | 102% | 98.7% | 96.4% | 95.2% | 108% | 102% | 93.9% | 98.8% | 99.4% | 104% | 93.4% | 94% | 95.3% | 96.8% | 108% | 103% | 98.6% | 101% | 95.9% | 102% | > 10 µM | > 10 µM | > 10 µM | > 10 µM | > 10 µM | 0 | 0 | 0 | 0 | 0 |
| COc1ccc(/C=C/C(=O)O)cc1 [trans-4-methoxycinnamic-acid] | 95.1% | 99.6% | 88.7% | 100% | 88.3% | 103% | 92.2% | 108% | 98% | 98.8% | 106% | 92% | 100% | 91.7% | 96.3% | 101% | 96.3% | 102% | 98.6% | 97.5% | 99.3% | 102% | 98.1% | 103% | 97.7% | > 10 µM | > 10 µM | > 10 µM | > 10 µM | > 10 µM | 0 | 0 | 0 | 0 | 0 |
| O=C(O[C@H]1C[C@H]2CC[C@@H](C1)[N+]21CCCC1)C(O)(c1ccccc1)c1ccccc1 [trospium] | 92.8% | 97.1% | 94.7% | 98.3% | 99.9% | 101% | 101% | 97.2% | 98.2% | 94.3% | 98.3% | 93.8% | 107% | 94.8% | 108% | 95.7% | 97.5% | 101% | 99.1% | 88.9% | 95.6% | 99.5% | 93% | 95.3% | 102% | > 10 µM | > 10 µM | > 10 µM | > 10 µM | > 10 µM | 0 | 0 | 0 | 0 | 0 |
| O=c1cc[nH]c(=O)[nH]1 [uracil] | 91.5% | 90.6% | 91.3% | 93.8% | 98.5% | 91.8% | 95.2% | 93% | 94.6% | 95.6% | 98.6% | 94% | 99.6% | 102% | 117% | 91.7% | 98.7% | 94.8% | 102% | 103% | 96.2% | 88.4% | 91.8% | 89.5% | 112% | > 10 µM | > 10 µM | > 10 µM | > 10 µM | > 10 µM | 0 | 0 | 0 | 0 | 0 |
| CC[C@]12CCCN3CCc4c(n(c5ccccc45)C(=O)C1)[C@@H]32 [vinburnine] | 94.4% | 98.5% | 106% | 114% | 78.6% | 96.8% | 97.4% | 93.7% | 97.7% | 88.8% | 93.6% | 89.9% | 102% | 78.7% | 32.2% | 94.2% | 97.4% | 96.7% | 95.6% | 79.3% | 103% | 96.6% | 100% | 96.9% | 86.2% | > 10 µM | > 10 µM | 1.37 µM | > 10 µM | > 10 µM | 0.4 | 0 | 6.8 | 1.2 | 0.4 |
| C[C@@H](c1ncncc1F)[C@](O)(Cn1cncn1)c1ccc(F)cc1F [voriconazole] | 101% | 92.5% | 102% | 85.6% | 110% | 92.4% | 97.5% | 92.4% | 99.8% | 110% | 100% | 106% | 86.9% | 107% | 122% | 103% | 101% | 97.6% | 97.4% | 109% | 98.8% | 101% | 97.8% | 108% | 105% | > 10 µM | > 10 µM | > 10 µM | > 10 µM | > 10 µM | 0 | 0 | 0 | 0 | 0 |
| O=C[C@H](O)[C@@H](O)[C@H](O)CO [xylose] | 94% | 94.3% | 94.2% | 90.4% | 92.7% | 104% | 93% | 98.4% | 97.9% | 85.4% | 106% | 101% | 101% | 98% | 96.8% | 95.1% | 95.3% | 94.5% | 96.4% | 96.3% | 96.7% | 96.1% | 99.4% | 94.3% | 92.6% | > 10 µM | > 10 µM | > 10 µM | > 10 µM | > 10 µM | 0 | 0.3 | 0 | 0 | 0 |
